According to patent US4314988A, “Folic acid derivatives and process for preparation” (Baker Instruments Corp., priority 1979, dated 1982):

Key:
[1] = biological target: whole milk folate binder (Bos taurus, UniProt P02702); test: Competitive protein binding (CPB) radioassay for folates using pteroyltyrosine [125I] as radiolabel; settings: for coincidence of dose response curves generated using pteroyltyrosine [125I] as label: high pH versus lower pH
Description: The use of the Centria® analytical system, Union Carbide Corporation, in this example, is meant to be illustrative and other methods, both automated and manual, obvious to those skilled in the clinical diagnostic art are also within the scope of this invention.
Briefly, the Centria® system is a tri-modular instrument in which reagents are pipetted on to a multiwell transfer disk and mixed centrifugally with standards or patients' samples. After a suitable incubation period, the components are separated by a centrifugal elution of the bound and free fractions and the bound fractions counted three at a time.
Folic acid and N^5 -methyltetrahydrofolic acid standards in the range 0-20 nanograms/milliliter were prepared in 0.05 M sodium borate, pH 9.3 containing 0.1% human serum albumin. The whole milk binder was prepared according to the method of Rothenberg et al., (3) and dissolved in sodium borate, pH 9.3 containing 0.1% human serum albumin.
(50 microliters, 20,000 cpm) plus 85 microliters of water with the limited number of binding sites contained in a 200 microliter solution of whole milk folate binder. The binding reactions may be shown as follows:
A gamma counter which counts three of the 36 positions at a time for one minute, so constructed that only the eluate bottom portion of the test tubes fits into the counter, was then used to count all samples. Sequential counting of the tubes thus required about 12 minutes. A small computer with printout capability then printed out the data after completion of the cycle.

[2] = system: carboxypeptidase A; test: Enzymatic hydrolysis of pteroyltyrosine followed spectrophotometrically (uv); format: biochemical; settings: 0.025 M Tris-HCl, 2 mM zinc chloride, pH 7.3, two hours at ambient temperature
Description: Two milliliters of a solution of pteroyltrosine (0.75 mmoles/ml) in 0.025 M Tris-HCl containing 2 mM zinc chloride, pH 7.3 were diluted to 10 ml with distilled water. A portion of this solution (2 ml) was placed in a 1 cm cuvette and in another was placed 2 ml of distilled water. To each of the cuvettes was added 50 μl of a solution of 100 μl carboxypeptidase A suspension (Aldrich chemical, lot 060637) diluted with 0.9 ml of 10% lithium chloride.
The time course of the reaction was followed spectrophotometrically (uv) over a period of two hours at ambient temperature. An increase and shift in max from 280 to 277 nm and a marked decrease in absorption at 220 nm was observed. Two isosbestic points at 242 and 282 nm were visible.

[3] = Storage stability of the radioiodinated product, judged by assay performance; format: physicochemical; settings: stored in a 50% aqueous propylene glycol solution, ten-week period
Excerpt: Radioiodination of biological compounds frequently leads to marked chemical instability and subsequent degradation of the radiolabel. This problem is often accentuated in the radiolabel when the materials to be radioiodinated are known to be sensitive to oxygen, light or extremes in pH, as is the case with folic acid and some derivatives.
The reaction mixture was applied to a 1×20 cm Sephadex G25, fine, (Pharmacia Fine Chemicals, Uppsala, Sweden) column hydrated with distilled water and equilibrated with 0.1 M potassium phosphate, pH 7.5. The column was eluted with 0.1 M potassium phosphate buffer and 3 ml fractions collected. The product "peak" fractions 32-34 were collected, diluted 1:1 with propylene glycol and stored below 0° C.

whole milk folate binder, sequence (P02702 20-234): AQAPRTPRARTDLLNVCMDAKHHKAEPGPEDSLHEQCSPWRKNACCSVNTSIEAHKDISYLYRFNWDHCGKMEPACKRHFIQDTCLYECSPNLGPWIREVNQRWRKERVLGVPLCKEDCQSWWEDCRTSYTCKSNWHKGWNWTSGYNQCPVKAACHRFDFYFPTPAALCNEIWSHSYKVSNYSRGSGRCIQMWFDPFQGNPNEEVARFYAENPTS

CN1c2c(O)nc(N)nc2NCC1CNc1ccc(C(=O)N[C@@H](CCC(=O)O)C(=O)O)cc1 (some centres unmarked) [N^5 -methyl THF, N-5-methyltetrahydrofolic acid]
coincidence of dose response curves generated using pteroyltyrosine [125I] as label [1]: more nearly coincident than at lower pH

Nc1nc2ncc(CNc3ccc(C(=O)N[C@@H](Cc4ccc(O)cc4)C(=O)O)cc3)nc2c(=O)[nH]1 [Pteroyltyrosine, Pteroyl-L-Tyrosine]
final uv spectrum after treatment with carboxypeptidase A [2]: very similar to that of pteroic acid

Nc1nc2ncc(CNc3ccc(C(=O)N[C@@H](CCC(=O)O)C(=O)O)cc3)nc2c(=O)[nH]1 [folic acid, pteroylglutamic acid]
coincidence of dose response curves generated using pteroyltyrosine [125I] as label [1]: more nearly coincident than at lower pH

Nc1nc(O)c2nc(CNc3ccc(C(=O)N[C@@H](Cc4ccc(O)c([125I])c4)C(=O)O)cc3)cnc2n1 [pteroyltyrosine [^125 I]]
performance as radiolabel in CPB radioassay for folic acid ([1]; folic acid concentration range 0-20 ng/ml): effective radiolabel in a sensitive CPB radioassay for folic acid
deterioration in assay performance on storage [3]: no deterioration in assay performance over a ten-week period
